Patent publication US12599647B2, “Peptide amide composition and preparation method therefor” (Xizang Haisco Pharmaceutical Co., Ltd., priority 2019, dated 2026)
Several values for one entry are separate records, joined by “and”; a condition that tells them apart may be missing. Equal entries are not always repeated.

Legend:
Assay type in all cases: physicochemical
[1] = Related substances in compound II solutions at pH range 3-5.5 (Table 2); conditions: aqueous solution, pH adjusted with glacial acetic acid; 40°C±2°C, 10 days
Description: (§1) Considering the operability of industrial production, we examined the stability of solutions at a pH range of 3-5.5. 750 ml of water for injection was measured and taken; nitrogen was charged beneath the surface of the liquid for about 20 min; and the water temperature was controlled to be 50° C. or less. 37.5 mg of compound II was weighed, added to the above-mentioned water for injection and stirred to dissolution and clarification to obtain solution (1). Solution (1) was adjusted with glacial acetic acid (source: Chengdu Kelong Chemical Co., Ltd.) to different pH values, and aqueous solutions containing compound II at different pH values were obtained. The aqueous solutions were placed under the conditions of 40° C.±2° C. for 10 days, and the performance of related substances in the solutions at different pH values was examined, with data shown in Table 2.

[2] = Related substances in compound II solutions at different pH values (Table 1); conditions: aqueous solutions, pH adjusted with glacial acetic acid or tartaric acid; 40°C±2°C, 10 days
Description: as §1, with “750” for “Considering the operability of industrial production, we examined the stability of solutions at a pH range of 3-5.5. 750”, “Ltd.) and tartaric acid” for “Ltd.)”, “values, respectively,” for “values,”, “examined (including the solution at a pH value not being adjusted),” for “examined,”, “1.” for “2.”

[3] = Related substances of formulation solutions for injection after high temperature acceleration at 40°C; conditions: compound II raw material (stored refrigerated 2°C-8°C), control, 0 days
Description: The sample of Formulation 1 solution for injection was placed under the conditions of 40° C.±2° C. for 5 days; compound II raw material (stored under refrigerated conditions of 2° C.-8° C.) was used as a control; and changes of related substances in the sample were examined, with data shown in Table 3.
Formulation 2 solution for injection was placed under the conditions of 40° C. 2° C. for 5 days; compound II raw material (stored under refrigerated conditions of 2° C.-8° C.) was used as a control; and changes of related substances in the sample were examined, with data shown in Table 4.
Formulation 3 solution for injection was placed under the conditions of 40° C. 2° C. for 5 days; compound II raw material (stored under refrigerated conditions of 2° C.-8° C.) was used as a control; and changes of related substances in the sample were examined, with data shown in Table 5.
Formulation 4 solution for injection was placed under the conditions of 40° C. 2° C. for 9 days; compound II raw material (stored under refrigerated conditions of 2° C.-8° C.) was used as a control; and changes of related substances in the sample were examined, with data shown in Table 6.
Formulation 5 solution for injection was placed under the conditions of 40° C. […]

In the case of `CC(=O)N1CC2(CCN(C(=O)[C@@H](CCCCN)NC(=O)[C@@H](CC(C)C)NC(=O)[C@@H](Cc3ccccc3)NC(=O)[C@H](N)Cc3ccccc3)CC2)C1` [Compound II], the “pH range at which the product is stable” value [1] is reported as 3-5.5, the “pH value of best stability” value [2] is reported as “about 4” and the “Total impurity (%)” value [3] is reported as 1.098% and 1.238%.
